Source: PMC11091243, “PD-L1 targeted peptide demonstrates potent antitumor and immunomodulatory activity in cancer immunotherapy” (Frontiers in Immunology, 2024)

System: CT26 tumor
Format: in vivo, mouse
Procedure: The investigators conducting the animal studies were not blinded. […] The mice were then randomized into different treatment groups.
The mice’s tumor volumes were measured by calipers after they were randomly allocated to various treatment groups. Every day tumor volumes were measured along axes (a and b) that are orthogonal to one another, and they were estimated by the equation tumor volume = π/6 × a × b^2. After the tumor was established (approximately 7 days), each group was subcutaneously injected with PPL-C (6 or 11 mg/kg), control peptide (11 mg/kg), endotoxin-free PD-L1 antibody (200 μg), or control antibody, following specific treatment procedures outlined in the flow chart. The Kaplan-Meier technique was used to determine survival differences for each group, and the log-rank test using the survival R package version 2.38-3 was applied to get the overall p-value.

CC(C)[C@H](NC(=O)[C@H](CO)NC(=O)[C@@H](NC(=O)[C@@H](N)CO)C(C)C)C(=O)N[C@@H](CO)C(=O)N[C@@H](Cc1c[nH]cn1)C(=O)N[C@@H](Cc1ccccc1)C(=O)N[C@@H](CCC(N)=O)C(=O)N[C@@H](CCCCN)C(=O)N[C@H](C(=O)N[C@@H](Cc1c[nH]c2ccccc12)C(=O)N[C@H](C(=O)N[C@H](C(=O)NCC(=O)NCC(=O)NCC(=O)N[C@@H](CO)C(=O)N[C@@H](CCCCN)C(N)=O)C(C)C)C(C)C)C(C)C [PPL-C]
Increase in survival time of CT26 tumor-bearing mice (11 mg/kg s.c. around the tumor, dosing-schedule study, saline as negative control): approximately 50%
Increase in survival time compared to the control peptide (reduced dose, s.c. around the tumor every day or every other day): approximately 50%
Survival time of CT26 tumor-bearing mice (reduced dose, s.c. around the tumor every day or every other day, n = 6, P<0.001): 81 days
